Assay results: patent US9975874B2, “Factor XIa inhibitors” (Merck Sharp & Dohme Corp., priority 2014, dated 2018)

How the values were obtained:
[1] = target: purified human Factor XIa (Homo sapiens (Human), UniProt P03951); assay: Factor XIa Assay; format: biochemical; settings: substrate Z-Gly-Pro-Arg-AFC 100 μM, 40 pM enzyme, pH 7.4; read-out: FXIa IC50
Method: The effectiveness of a compound of the present invention as an inhibitor of Coagulation Factor XIa can be determined using a relevant purified serine protease, and an appropriate synthetic substrate. The rate of hydrolysis of the chromogenic or fluorogenic substrate by the relevant serine protease was measured both in the absence and presence of compounds of the present invention. Assays were conducted at room temperature or at 37° C. […] A decrease in the rate of fluorescence change in the presence of inhibitor is indicative of enzyme inhibition. Such methods are known to one skilled in the art. […]
Factor XIa determinations were made in 50 mM HEPES buffer at pH 7.4 containing 150 mM NaCl, 5 mM CaCl2, and 0.1% PEG 8000 (polyethylene glycol; JT Baker or Fisher Scientific). Determinations were made using purified human Factor XIa at a final concentration of 40 pM (Sekisui Diagnostics) and the synthetic substrate, Z-Gly-Pro-Arg-AFC, TFA salt (Sigma #C0980) at a concentration of 100 μM.
Times required to achieve equilibration between enzyme and inhibitor were determined in control experiments. Initial velocities of product formation in the absence (Vo) or presence of inhibitor (Vi) were measured. Assuming competitive inhibition, and that unity is negligible compared Km/[S], [I]/e, and [I]/e (where [S], [I], and e respectively represent the total concentrations, of substrate, inhibitor and enzyme), the equilibrium constant (Ki) for dissociation of the inhibitor from the enzyme can be obtained from the dependence of Vo/Vi on [I] shown in the following equation.

[2] = target: purified Human plasma kallikrein (Homo sapiens (Human), UniProt P03952); assay: Kallikrein Assay; format: biochemical; settings: Plasma kallikrein; substrate Acetyl-K-P-R-AFC, 0.5 nM enzyme, pH 7.4; read-out: PK IC50
Method: The effectiveness of a compound of the present invention as an inhibitor of Kallikrein can be determined using a relevant purified serine protease, and an appropriate synthetic substrate. The rate of hydrolysis of the chromogenic or fluorogenic substrate by the relevant serine protease was measured both in the absence and presence of compounds of the present invention. Assays were conducted at room temperature or at 37° C. […] A decrease in the rate of fluorescence change in the presence of inhibitor is indicative of enzyme inhibition. Such methods are known to one skilled in the art. The results of this assay are expressed as the inhibitory constant, Ki.
Kallikrein determinations were made in 50 mM HEPES buffer at pH 7.4 containing 150 mM NaCl, 5 mM CaCl2, and 0.1% PEG 8000 (polyethylene glycol; Fisher Scientific). Determinations were made using purified Human plasma kallikrein at a final concentration of 0.5 nM (Enzyme Research Laboratories) and the synthetic substrate, Acetyl-K-P-R-AFC (Sigma # C6608) at a concentration of […].
Times required to achieve equilibration between enzyme and inhibitor were determined in control experiments. The reactions were performed under linear progress curve conditions and fluorescence increase measured at 405 Ex/510 Em nm. […] IC50 was determined by inflection point from a four parameter logistic curve fit. Ki was calculated using the Cheng Prusoff equation, Ki=IC50/(1+([S]/Km)).

purified Human plasma kallikrein, sequence (P03952 391-638): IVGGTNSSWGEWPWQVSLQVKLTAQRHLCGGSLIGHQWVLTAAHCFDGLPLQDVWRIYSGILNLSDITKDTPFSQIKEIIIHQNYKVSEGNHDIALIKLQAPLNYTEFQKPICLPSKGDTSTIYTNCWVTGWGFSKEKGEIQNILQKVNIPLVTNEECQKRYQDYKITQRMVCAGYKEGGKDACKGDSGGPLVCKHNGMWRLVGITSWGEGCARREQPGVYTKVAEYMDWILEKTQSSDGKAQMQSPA
purified Human plasma kallikrein, sequence (P03952 20-390 partner): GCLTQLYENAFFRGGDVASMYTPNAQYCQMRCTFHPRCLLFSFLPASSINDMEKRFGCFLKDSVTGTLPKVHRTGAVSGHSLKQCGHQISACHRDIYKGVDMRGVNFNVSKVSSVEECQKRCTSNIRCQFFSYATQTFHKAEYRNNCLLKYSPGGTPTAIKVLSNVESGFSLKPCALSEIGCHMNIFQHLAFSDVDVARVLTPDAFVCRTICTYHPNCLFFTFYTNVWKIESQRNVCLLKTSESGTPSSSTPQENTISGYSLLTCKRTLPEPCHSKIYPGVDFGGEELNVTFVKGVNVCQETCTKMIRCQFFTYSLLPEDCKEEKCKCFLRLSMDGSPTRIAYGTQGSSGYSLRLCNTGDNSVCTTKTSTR
purified human Factor XIa, sequence (P03951 388-625): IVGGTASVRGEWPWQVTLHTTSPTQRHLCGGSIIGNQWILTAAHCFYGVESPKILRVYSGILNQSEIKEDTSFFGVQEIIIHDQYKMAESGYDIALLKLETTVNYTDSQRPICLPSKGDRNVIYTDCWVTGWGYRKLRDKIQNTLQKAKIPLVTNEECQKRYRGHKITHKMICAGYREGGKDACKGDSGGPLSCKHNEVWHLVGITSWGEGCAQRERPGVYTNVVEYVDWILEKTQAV
purified human Factor XIa, sequence (P03951 19-387 partner): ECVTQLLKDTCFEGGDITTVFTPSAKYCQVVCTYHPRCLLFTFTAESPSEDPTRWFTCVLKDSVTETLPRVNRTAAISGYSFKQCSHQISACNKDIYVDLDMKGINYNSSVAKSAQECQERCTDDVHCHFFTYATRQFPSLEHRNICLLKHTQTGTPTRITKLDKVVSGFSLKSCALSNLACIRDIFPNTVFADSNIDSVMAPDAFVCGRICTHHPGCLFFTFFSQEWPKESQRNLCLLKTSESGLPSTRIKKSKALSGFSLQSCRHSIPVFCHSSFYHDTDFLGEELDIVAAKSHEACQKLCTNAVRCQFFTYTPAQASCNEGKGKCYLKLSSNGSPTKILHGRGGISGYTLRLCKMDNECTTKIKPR

Row | SMILES | IC50 [1] [nM] | IC50 [2] [nM]
1 | O=C(NC1CCOC1)N1CCC(c2cccc([C@H](Cc3ccccc3)c3ccc(-c4cc(Cl)ccc4-n4cnnn4)c[n+]3[O-])c2)CC1 (stereo partly drawn) [Example 49, 4-{3-[(1S)-1-{5-[5-chloro-2-(1H-tetrazol-1-yl)phenyl]-1-oxidopyridin-2-yl}-2-phenylethyl]phenyl}-N-(tetrahydrofuran-3-yl)piperidine-1-carboxamide] | 6.89 | 414
2 | O=C(NCC1CCOC1)N1CCC(c2cccc([C@H](Cc3ccccc3)c3ccc(-c4cc(Cl)ccc4-n4cnnn4)c[n+]3[O-])c2)CC1 (stereo partly drawn) [Example 52, 4-{3-[(1S)-1-{5-[5-chloro-2-(1H-tetrazol-1-yl)phenyl]-1-oxidopyridin-2-yl}-2-phenylethyl]phenyl}-N-(tetrahydrofuran-3-ylmethyl) piperidine-1-carboxamide] | 6.48 | 384
3 | CS(=O)(=O)N1CCC(c2cccc(C(Cc3ccccc3)c3ccc(-c4cc(Cl)ccc4-n4cnnn4)c[n+]3[O-])c2)CC1 (racemic) [Example 22, 5-[5-chloro-2-(1H-tetrazol-1-yl)phenyl]-2-(1-{3-[1-(methylsulfonyl)piperidin-4-yl]phenyl}-2-phenylethyl) pyridine 1-oxide] | 59.4 | 1040
4 | O=C(NC1CCC1)N1CCC(c2cccc([C@H](Cc3ccccc3)c3ccc(-c4cc(Cl)ccc4-n4cnnn4)c[n+]3[O-])c2)CC1 [Example 51, 4-{3-[(1S)-1-{5-[5-chloro-2-(1H-tetrazol-1-yl)phenyl]-1-oxidopyridin-2-yl}-2-phenylethyl]phenyl}-N-cyclobutyl piperidine-1-carboxamide] | 13.2 | 614
5 | O=C(O)c1cccc(-c2cccc([C@H](Cc3ccccc3)c3ccc(-c4cc(Cl)ccc4-n4cnnn4)c[n+]3[O-])c2)c1 (stereo in doubt) [Example 9, 2-(1-(3′-carboxy-[1,1′-biphenyl]-3-yl)-2-phenylethyl)-5-(5-chloro-2-(1H-tetrazol-1-yl)phenyl)pyridine 1-oxide] | 0.267 | 24.9
6 | O=C(O)c1ccc(-c2cccc(C(Cc3ccccc3)c3ccc(-c4cc(Cl)ccc4-n4cnnn4)c[n+]3[O-])c2)cc1 (single isomer, unassigned) [Example 11] | 14 | 276
7 | O=C(O)c1cccc(-c2cccc(C(CC3CC3)c3ccc(-c4cc(Cl)ccc4-n4cnnn4)c[n+]3[O-])c2)c1 (racemic) [Example 17] | 12 | 543
8 | O=C(C1CCCO1)N1CCC(c2cccc([C@H](Cc3ccccc3)c3ccc(-c4cc(Cl)ccc4-n4cnnn4)c[n+]3[O-])c2)CC1 (stereo partly drawn) [Example 31, 5-[5-chloro-2-(1H-tetrazol-1-yl)phenyl]-2-[(1S)-2-phenyl-1-{3-[1-(tetrahydrofuran-2-ylcarbonyl)piperidin-4-yl]phenyl}ethyl] pyridine 1-oxide] | 10.8 | 336
9 | CS(=O)(=O)c1ccc(-c2cccc(C(Cc3ccccc3)c3ccc(-c4cc(Cl)ccc4-n4cnnn4)c[n+]3[O-])c2)cc1 (stereo not drawn) [Example 4] | 38.9 | 4660
10 | O=C(C1CC1(F)F)N1CCC(c2cccc([C@H](Cc3ccccc3)c3ccc(-c4cc(Cl)ccc4-n4cnnn4)c[n+]3[O-])c2)CC1 (stereo partly drawn) [Example 30, 5-[5-chloro-2-(1H-tetrazol-1-yl)phenyl]-2-[(1S)-1-(3-{1-[(2,2-difluoro-cyclopropyl)carbonyl]piperidin-4-yl}phenyl)-2-phenylethyl] pyridine 1-oxide] | 28.6 | 820
11 | CS(=O)(=O)c1ccc(-c2cccc([C@H](Cc3ccccc3)c3ccc(-c4cc(Cl)ccc4-n4cnnn4)c[n+]3[O-])c2)cc1 [Example 6] | 31.1 | 1110
12 | O=C(O)c1cccc(-c2cc(F)cc(C(Cc3ccccc3)c3ccc(-c4cc(Cl)ccc4-n4cnnn4)c[n+]3[O-])c2)c1 (racemic) [Example 13] | 0.343 | 12
13 | COC(=O)Nc1ccc(-c2cccc(C(Cc3ccccc3)c3ccc(-c4cc(Cl)ccc4-n4cnnn4)c[n+]3[O-])c2)cc1 (racemic) [Example 1, (±)-5-(5-Chloro-2-(1H-tetrazol-1-yl)phenyl)-2-(1-(4′-((methoxycarbonyl)amino)-[1,1′-biphenyl]-3-yl)-2-phenylethyl)pyridine 1-oxide] | 0.634 | 24.4
14 | O=C(O)c1cccc(-c2cccc(C(CC3CC3)c3ccc(-c4cc(Cl)ccc4-n4cnnn4)c[n+]3[O-])c2)c1 (stereo not drawn) [Example 18] | 12 | 250

Further lines, results first:

Row | IC50 [1] [nM] | IC50 [2] [nM] | SMILES
15 | 11.2 | 376 | COCCC(=O)N1CCC(c2cccc([C@H](Cc3ccccc3)c3ccc(-c4cc(Cl)ccc4-n4cnnn4)c[n+]3[O-])c2)CC1 [Example 33, 5-[5-chloro-2-(1H-tetrazol-1-yl)phenyl]-2-[(1S)-1-{3-[1-(3-methoxy-propanoyl)piperidin-4-yl]phenyl}-2-phenylethyl] pyridine 1-oxide]
16 | 12.2 | 403 | O=C(C1CCO1)N1CCC(c2cccc([C@H](Cc3ccccc3)c3ccc(-c4cc(Cl)ccc4-n4cnnn4)c[n+]3[O-])c2)CC1 (stereo partly drawn) [Example 35, 5-[5-chloro-2-(1H-tetrazol-1-yl)phenyl]-2-[(1S)-1-{3-[1-(oxetan-2-ylcarbonyl)piperidin-4-yl]phenyl}-2-phenylethyl] pyridine 1-oxide]
17 | 8.17 | 382 | COCC(=O)N1CCC(c2cccc([C@H](Cc3ccccc3)c3ccc(-c4cc(Cl)ccc4-n4cnnn4)c[n+]3[O-])c2)CC1 [Example 36, 5-[5-chloro-2-(1H-tetrazol-1-yl)phenyl]-2-[(1S)-1-{3-[1-(methoxyacetyl)piperidin-4-yl]phenyl}-2-phenylethyl] pyridine 1-oxide]
18 | 10.2 | 496 | CNC(=O)N1CCC(c2cccc(C(Cc3ccccc3)c3ccc(-c4cc(Cl)ccc4-n4cnnn4)c[n+]3[O-])c2)CC1 (racemic) [Example 21, 4-[3-(1-{5-[5-chloro-2-(1H-tetrazol-1-yl)phenyl]-1-oxidopyridin-2-yl}-2-phenylethyl)phenyl]-N-methyl piperidine-1-carboxamide]
19 | 8.71 | 325 | COCCNC(=O)N1CCC(c2cccc([C@H](Cc3ccccc3)c3ccc(-c4cc(Cl)ccc4-n4cnnn4)c[n+]3[O-])c2)CC1 [Example 48, 4-{3-[(1s)-1-{5-[5-chloro-2-(1H-tetrazol-1-yl)phenyl]-1-oxidopyridin-2-yl}-2-phenylethyl]phenyl}-N-(2-methoxyethyl) piperidine-1-carboxamide]
20 | 11.1 | 324 | O=C1CC(C(=O)N2CCC(c3cccc([C@H](Cc4ccccc4)c4ccc(-c5cc(Cl)ccc5-n5cnnn5)c[n+]4[O-])c3)CC2)C1 [Example 32, 3-[(4-{3-[(1S)-1-{5-[5-chloro-2-(1H-tetrazol-1-yl)phenyl]-1-oxidopyridin-2-yl}-2-phenylethyl]phenyl}piperidin-1-yl)carbonyl] cyclobutanone]
21 | 9.95 | 113 | NC(=O)C(=O)N1CCC(c2cccc([C@H](Cc3ccccc3)c3ccc(-c4cc(Cl)ccc4-n4cnnn4)c[n+]3[O-])c2)CC1 [Example 39, 2-(4-{3-[(1S)-1-{5-[5-chloro-2-(1H-tetrazol-1-yl)phenyl]-1-oxidopyridin-2-yl}-2-phenylethyl]phenyl}piperidin-1-yl)-2-oxoacetamide]
